From ChEMBL document CHEMBL1201862, “PubChem BioAssay data set” (2004)
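48-hour exposure; five concentrations; linearly interpolated endpoints. At the GI50, growth is halved.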 Active and inactive are the calls of the source. No stated cut-off is given here; in the data, active = GI50 up to about 1.1 µM and inactive = higher.

What was measured:
Test in all cases: DTP human tumour cell line panel, 48 h
[1] = system: EKVX
[2] = system: HCC 2998
[3] = system: HL-60
[4] = system: HT-29
[5] = system: Hs-578T
[6] = system: KM12
[7] = system: LOX IMVI
[8] = system: MDA-N
[9] = system: Malme-3M
[10] = system: NCI-H522
[11] = system: NCI/ADR-RES
[12] = system: OVCAR-3
[13] = system: OVCAR-5
[14] = system: SF-268
[15] = system: SF-295
[16] = system: SN12C
[17] = system: TK-10
[18] = system: UACC-257

Row | Compound | GI50 [1] | GI50 [2] | GI50 [3] | GI50 [4] | GI50 [5] | GI50 [6] | GI50 [7] | GI50 [8] | GI50 [9] | GI50 [10] | GI50 [11] | GI50 [12] | GI50 [13] | GI50 [14] | GI50 [15] | GI50 [16] | GI50 [17] | GI50 [18]
1 | C[C@H]1C=C2[C@@H]3CC(C)(C(=O)O)CC[C@]3(C)CC[C@]2(C)[C@]2(C)CC[C@H]3C(C)(C)[C@@H](OC(=O)c4cccc5c(=O)c6ccccc6[nH]c45)CC[C@]3(C)[C@@H]12 (stereo partly drawn) | > 100 µM (inactive) | 88.7 µM (inactive) | 38.4 µM (inactive) | > 100 µM (inactive) | > 100 µM (inactive) | 37.2 µM (inactive) | 57 µM (inactive) | 59.8 µM (inactive) | 66.8 µM (inactive) | 28.8 µM (inactive) | 54.6 µM (inactive) | > 100 µM (inactive) | > 100 µM (inactive) | > 100 µM (inactive) | > 100 µM (inactive) | > 100 µM (inactive) | > 100 µM (inactive) | 29.7 µM (inactive)
2 | c1ccc2sc(SCCSc3nc4ccccc4s3)nc2c1 | > 100 µM (inactive) | 20.3 µM (inactive) | 65.8 µM (inactive) | > 100 µM (inactive) | > 100 µM (inactive) | 52.4 µM (inactive) | > 100 µM (inactive) | > 100 µM (inactive) | > 100 µM (inactive) | > 100 µM (inactive) | > 100 µM (inactive) | > 100 µM (inactive) | > 100 µM (inactive) | > 100 µM (inactive) | > 100 µM (inactive) | > 100 µM (inactive) | > 100 µM (inactive) | > 100 µM (inactive)
3 | CC(=NNC(=S)Nc1ccccc1)c1cccc(C(C)=NNC(=S)Nc2ccccc2)n1 | 6.98 µM (inactive) | 3.64 µM (inactive) | 0.189 µM (active) | 2.34 µM (inactive) | > 37.8 µM (inactive) | 3.38 µM (inactive) | 2.24 µM (inactive) | 14.1 µM (inactive) | 4.57 µM (inactive) | 5.35 µM (inactive) | 1.61 µM (inactive) | 1.38 µM (inactive) | > 22 µM (inactive) |  | 3.62 µM (inactive) | 4.48 µM (inactive) | 4.24 µM (inactive) | 8.83 µM (inactive)
4 | CC(=O)O[C@@H]1C(=O)N(c2ccccc2)[C@@H]1c1cc2ccccc2c2ccccc12 | 40.6 µM (inactive) | 25.7 µM (inactive) | 26.4 µM (inactive) | 29 µM (inactive) | 27.7 µM (inactive) | 20.3 µM (inactive) | 20 µM (inactive) | 43 µM (inactive) | 22.9 µM (inactive) | 3.01 µM (inactive) | 33.9 µM (inactive) | 23.2 µM (inactive) | 50 µM (inactive) | 44.3 µM (inactive) | 38 µM (inactive) | 34.4 µM (inactive) | 30.9 µM (inactive) | 25.5 µM (inactive)
5 | O=[N+]([O-])C(/C=C(\Cl)n1nnc2ccccc21)=C(/Cl)n1nnc2ccccc21 | > 100 µM (inactive) | > 100 µM (inactive) |  | > 100 µM (inactive) | > 100 µM (inactive) | > 100 µM (inactive) | > 100 µM (inactive) | > 100 µM (inactive) | > 100 µM (inactive) | > 100 µM (inactive) | > 100 µM (inactive) | > 100 µM (inactive) | > 100 µM (inactive) | > 100 µM (inactive) | > 100 µM (inactive) | > 100 µM (inactive) | > 100 µM (inactive) | > 100 µM (inactive)
6 | CC(=O)Nc1ccc2c(C)c3c4ccccc4n(C)c3nc2n1 | 29 µM (inactive) | 16.4 µM (inactive) | 12.9 µM (inactive) | 14.8 µM (inactive) | 16.3 µM (inactive) | 11.9 µM (inactive) | 12.6 µM (inactive) | 17.1 µM (inactive) |  | 16.1 µM (inactive) | 22.3 µM (inactive) | 26.1 µM (inactive) | 18.6 µM (inactive) | 17.8 µM (inactive) | 19.9 µM (inactive) | 16.4 µM (inactive) | 32.9 µM (inactive) | 26.9 µM (inactive)
7 | CCOC(=O)C(O)(NC(=O)Nc1ccc(F)cc1)C(F)(F)F (stereo not drawn) | > 100 µM (inactive) | > 100 µM (inactive) | > 100 µM (inactive) | > 100 µM (inactive) | > 100 µM (inactive) |  | > 100 µM (inactive) | > 100 µM (inactive) |  |  | > 100 µM (inactive) |  | > 100 µM (inactive) | > 100 µM (inactive) |  | > 100 µM (inactive) | > 100 µM (inactive) | > 100 µM (inactive)
8 | Cc1ccc(C)c(COCCOCn2cc(Br)c(N)nc2=O)c1 | > 100 µM (inactive) | > 100 µM (inactive) | 14 µM (inactive) |  | > 100 µM (inactive) | > 100 µM (inactive) | > 100 µM (inactive) | > 100 µM (inactive) | > 100 µM (inactive) | > 100 µM (inactive) | > 100 µM (inactive) | > 100 µM (inactive) | > 100 µM (inactive) | > 100 µM (inactive) | > 100 µM (inactive) | > 100 µM (inactive) | > 100 µM (inactive) | > 100 µM (inactive)
9 | COC(=O)[C@]12CCC(=O)N1[C@H](C(=O)O)Cc1c2[nH]c2ccccc12 | > 100 µM (inactive) | > 100 µM (inactive) |  | > 100 µM (inactive) | > 100 µM (inactive) | > 100 µM (inactive) | > 100 µM (inactive) | > 100 µM (inactive) | > 100 µM (inactive) | > 100 µM (inactive) | > 100 µM (inactive) | > 100 µM (inactive) | > 100 µM (inactive) | > 100 µM (inactive) | > 100 µM (inactive) | > 100 µM (inactive) | > 100 µM (inactive) | > 100 µM (inactive)
10 | COc1cc(-c2oc(/C=N/c3ccccc3)c([N+](=O)[O-])c2-c2ccc(O)c(OC)c2)ccc1O | 25.8 µM (inactive) | 15 µM (inactive) | 0.412 µM (active) | 17.1 µM (inactive) | 39.6 µM (inactive) | 21.7 µM (inactive) | 9.57 µM (inactive) | 31 µM (inactive) |  | 12.5 µM (inactive) | 22.8 µM (inactive) | 35.4 µM (inactive) | 35.5 µM (inactive) | 19.7 µM (inactive) | 31.6 µM (inactive) | 27 µM (inactive) | 18 µM (inactive) | 27 µM (inactive)
11 | CC(C)(C)OC(=O)NCC(CNC(=O)OC(C)(C)C)c1nc(C(N)=O)cs1 | > 100 µM (inactive) | > 100 µM (inactive) | > 100 µM (inactive) | > 100 µM (inactive) | > 100 µM (inactive) | > 100 µM (inactive) | > 100 µM (inactive) | > 100 µM (inactive) | > 100 µM (inactive) |  | > 100 µM (inactive) | > 100 µM (inactive) | > 100 µM (inactive) |  | > 100 µM (inactive) | > 100 µM (inactive) | > 100 µM (inactive) | > 100 µM (inactive)
12 | Cc1ccccc1NC(=O)/C(C#N)=N\Nc1[nH]cnc1C(N)=O | 66.8 µM (inactive) | 2.92 µM (inactive) | > 100 µM (inactive) | 38.6 µM (inactive) | 24.3 µM (inactive) | 28.6 µM (inactive) |  | 12.9 µM (inactive) | 4.62 µM (inactive) | 18 µM (inactive) | 2.45 µM (inactive) | 2.42 µM (inactive) | 40.3 µM (inactive) | 4.11 µM (inactive) | 9.82 µM (inactive) | 5 µM (inactive) | 3.08 µM (inactive) | 15.2 µM (inactive)
13 | Cn1c(CO)ccc1-c1ccc(-c2ccc[se]2)[se]1 | 35.1 µM (inactive) | 0.798 µM (active) | 21.8 µM (inactive) | 31.7 µM (inactive) | 55 µM (inactive) | 19.8 µM (inactive) | 47.9 µM (inactive) | 15.5 µM (inactive) | > 72.1 µM (inactive) | 61.9 µM (inactive) | 32.7 µM (inactive) |  |  | 56.9 µM (inactive) | 34.6 µM (inactive) | > 52.4 µM (inactive) | < 0.01 µM (active) | 
14 | C#C[C@]1(O)CC[C@H]2[C@@H]3CCC4=C/C(=N/OC(=O)c5cccc6cc7ccccc7nc56)CC[C@@H]4[C@H]3CC[C@@]21CC |  | > 100 µM (inactive) | > 100 µM (inactive) | > 100 µM (inactive) | > 100 µM (inactive) | > 100 µM (inactive) | > 100 µM (inactive) | > 100 µM (inactive) |  |  | > 100 µM (inactive) | > 100 µM (inactive) | > 100 µM (inactive) | > 100 µM (inactive) |  | > 100 µM (inactive) |  | > 100 µM (inactive)
15 | O=c1cn[nH]c(=S)n1/N=C/c1c[nH]c2ccccc12 | > 100 µM (inactive) | > 100 µM (inactive) | 14.5 µM (inactive) | > 100 µM (inactive) | > 100 µM (inactive) | > 100 µM (inactive) | 30 µM (inactive) | 87.1 µM (inactive) | > 100 µM (inactive) | 39.1 µM (inactive) | > 100 µM (inactive) | > 100 µM (inactive) | > 100 µM (inactive) | > 100 µM (inactive) | > 100 µM (inactive) |  |  | 63 µM (inactive)
16 | O=C(Nc1ccc(Cl)c(Cl)c1)C(=O)C(C1OC(=O)c2ccccc21)[N+](=O)[O-] (stereo not drawn) | > 100 µM (inactive) | > 100 µM (inactive) |  | > 100 µM (inactive) | > 100 µM (inactive) | > 100 µM (inactive) | > 100 µM (inactive) | > 100 µM (inactive) | > 100 µM (inactive) | > 100 µM (inactive) | > 100 µM (inactive) | > 100 µM (inactive) | > 100 µM (inactive) | > 100 µM (inactive) | > 100 µM (inactive) | > 100 µM (inactive) | > 100 µM (inactive) | > 100 µM (inactive)
